Structures are written as SMILES. Like-named read-outs stand apart in the source and are kept apart here.

This is an account of results in patent publication US20240408211A1, “COMPOSITIONS AND METHODS OF AMELIORATING AVERSIVENESS OF AVERSIVE STIMULI BY INHIBITION OF PURINERGIC RECEPTORS” (Monell Chemical Senses Center, priority 2021, published 2024).

The target in one series is T1, P2X2/3 (Homo sapiens, UniProt P56373+Q9UBL9).
T1 construct: expressed in transfected cells; host or cells: HEK293
T1 sequence (Q9UBL9 1-471): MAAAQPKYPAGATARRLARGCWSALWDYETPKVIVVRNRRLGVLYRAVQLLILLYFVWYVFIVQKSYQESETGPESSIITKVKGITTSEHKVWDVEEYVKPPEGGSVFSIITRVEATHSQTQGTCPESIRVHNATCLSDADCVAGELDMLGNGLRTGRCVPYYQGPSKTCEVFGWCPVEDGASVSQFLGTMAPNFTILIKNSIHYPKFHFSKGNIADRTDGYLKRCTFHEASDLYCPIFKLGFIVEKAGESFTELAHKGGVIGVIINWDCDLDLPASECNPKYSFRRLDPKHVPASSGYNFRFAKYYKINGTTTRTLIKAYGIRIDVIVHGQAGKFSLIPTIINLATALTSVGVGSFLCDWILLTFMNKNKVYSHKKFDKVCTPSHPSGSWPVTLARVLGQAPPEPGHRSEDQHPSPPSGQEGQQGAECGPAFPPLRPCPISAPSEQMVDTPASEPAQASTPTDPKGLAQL
T1 sequence (P56373 1-397): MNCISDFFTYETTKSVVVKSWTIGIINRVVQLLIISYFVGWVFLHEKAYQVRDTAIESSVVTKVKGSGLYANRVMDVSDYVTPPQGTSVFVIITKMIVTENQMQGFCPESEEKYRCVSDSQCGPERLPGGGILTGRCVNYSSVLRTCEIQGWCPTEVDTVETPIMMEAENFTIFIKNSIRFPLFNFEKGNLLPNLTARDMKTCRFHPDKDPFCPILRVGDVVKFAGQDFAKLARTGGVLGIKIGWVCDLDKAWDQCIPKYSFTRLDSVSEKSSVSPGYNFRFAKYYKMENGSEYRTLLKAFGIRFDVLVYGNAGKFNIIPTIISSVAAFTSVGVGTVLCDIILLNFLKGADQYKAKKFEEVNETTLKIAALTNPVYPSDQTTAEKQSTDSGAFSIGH
As to the kind of experiment: P2X2/3 stable HEK293 cell lines responding to α,β-meATP (screening assay). Particulars: P2X2/3 stable HEK293 lines; FIGS. 8A and 8B. The class given is cell-based. As to the method: In this study, we built stable cell lines expressing P2X2/3 in HEK293 cells via transfection with either P2X2-Neo or P2X3-Zeo constructs, following which selection was performed using Zeocin, G418. Picked clones were grown out from single cells (cultured continuously in the presence of Zeocin and G418) using cloning rings.
The resulted stable cell lines are used for characterizing putative taste-blockers.

In the next series the test system is rats. Particulars: cited from earlier work.
The subject of series [1] is P2X3/P2X2/3 receptors on bladder afferent nerves. Particulars: rats; cited from earlier work.
For a further series, the system named is nodose C-fiber. Particulars: guinea pigs; cited from earlier work.
For series [2] the following is noted: intraperitoneal, cited from earlier work.
The subject of another series is mice. Particulars: intraperitoneal administration; cited from earlier work.

With `COc1cc(C(C)C)c(Oc2cnc(N)nc2N)cc1I` [AF-353, 5-[5-iodo-4-methoxy-2-(1-methylethyl)phenoxy]-2,4-pyrimidinediamine], on P2X2/3, the “response of the stable cell lines” value is on record as “dose-dependent manner”. Besides, in the series with rats, the “pain caused by bone cancer” value is reported as “attenuate”. In series [1], the “activity mediated by P2X3/P2X2/3 receptors on bladder afferent nerves” value is given as “counteracts”. Besides, the “bronchoconstriction-induced nodose C-fiber discharge” value in the series with nodose C-fiber is recorded as “blocks”. Besides, the plasma concentration in series [2] (0.25 mg/kg) is 1.3 µM; in series [2] (6 mg/kg) it was 44 µM. Moreover, in the series on mice, the “preference for SC-45647 shown by vehicle-administered mice” value is recorded as “eliminated”.
